Data from patent publication US8981148B2, “Esteramide compounds, methods for preparing same, and uses thereof” (priority 2010, dated 2015).

Columns and labels:
Format in all cases: physicochemical
[1] = Solubility of agrochemical actives in the solvents: visual observation at 25° C.; parameters: key: Crystal: When the formation of active crystals is observed, the term of <> is indicated; Limpid: When the solution remains limpid (absence of solid or cloudiness), it is the term of <> which is indicated
Experimental: (§1) Formulations were made by diluting various actives, reported below in the table, in the compounds 1C, 2C, 3 and 4 synthesized above.
1) Visual observation at 25° C.
The aspect of the formulation is noted and the presence of crystals is possibly located.
(§2) The actives used are commercially available.

[2] = Solubility of agrochemical actives in the solvents: visual observation at 0° C. with nucleation; parameters: key: Crystal: When the formation of active crystals is observed, the term of <> is indicated; Limpid: When the solution remains limpid (absence of solid or cloudiness), it is the term of <> which is indicated; conditions: crystal of active added, further 7 days at 0° C.
Experimental: Formulations were made by diluting various actives, reported below in the table, in the compounds 1C, 2C, 3 and 4 synthesized above. 3) Visual observation at 0° C. with nucleation (by introducing a crystal of the pure active into the liquid) A crystal of the active material is introduced into the formulation which has spent 7 days at 0° C. for nucleation, and the formulation is again placed for 7 days at 0° C. The aspect of the formulation is noted and the presence of crystals or the growth of the introduced crystal is possibly located. The actives used are commercially available.

[3] = Solubility of agrochemical actives in the solvents: visual observation at 0° C. after 7 days (CIPAC MT39 test); parameters: key: Crystal: When the formation of active crystals is observed, the term of <> is indicated; Limpid: When the solution remains limpid (absence of solid or cloudiness), it is the term of <> which is indicated; conditions: 7 days at 0° C.
Experimental: as §1
2) Visual observation at 0° C.
The formulation is placed at 0° C. for 7 days and the aspect of the formulation is noted and the presence of crystals is possibly located (CIPAC MT39 test).
as §2

[4] = Measurement of solubility of the solvent in water; conditions: +20° C., stirred 2 hours, visual limpidity
Experimental: In a glass flask, a specific weight of compound is weighed. A known mass of water is added on to this compound. T his mixture is magnetically stirred at a temperature of +20° C. for 2 hours. After this period, if visually, the solution has cloudiness or heterogeneity, a new mass of water is added to the mixture. This iteration occurs until a limpid solution is obtained. Maximum solubility is then less than the last value having led to a cloudy or heterogeneous mixture and greater than that having led to a limpid mixture.

[5] = Active Alachlor 48% EC in the compound as solvent
[6] = Active Azoxystrobin 25% EC in the compound as solvent
[7] = Active Difenconazole 25% EC in the compound as solvent
[8] = Active Dimethoate 40% EC in the compound as solvent
[9] = Active Oxyfluorfen 22% EC in the compound as solvent
[10] = Active Pendimethalin 33% EC in the compound as solvent
[11] = Active Phenmedipham 16% EC in the compound as solvent
[12] = Active Propanil 36% EC in the compound as solvent
[13] = Active Propuxur 20% EC in the compound as solvent
[14] = Active Tebuconazole 25% EC in the compound as solvent
[15] = Active Trifluralin 40% EC in the compound as solvent
[16] = Active alpha-Cypermethrin 10% EC in the compound as solvent
[17] = Active Chlorpyrifos 40% EC in the compound as solvent

SMILES	Aspect at 25° C. [1, 5]	Aspect at 25° C. [1, 7]	Aspect at 25° C. [1, 8]	Aspect at 25° C. [1, 9]	Aspect at 25° C. [1, 10]	Aspect at 25° C. [1, 12]	Aspect at 25° C. [1, 13]	Aspect at 25° C. [1, 15]	Aspect at 25° C. [1, 16]	Aspect at 0° C. with nucleation [2, 5]	Aspect at 0° C. with nucleation [2, 7]	Aspect at 0° C. with nucleation [2, 12]	Aspect at 0° C. with nucleation [2, 16]	Aspect at 0° C. [3, 5]	Aspect at 0° C. [3, 7]	Aspect at 0° C. [3, 8]	Aspect at 0° C. [3, 9]	Aspect at 0° C. [3, 10]	Aspect at 0° C. [3, 12]	Aspect at 0° C. [3, 15]	also measured
COC(=O)C(=O)N(C)C [Compound 1, methyl 2-(dimethylamino)-2-oxoacetate]	Limpid	Limpid	Limpid	Limpid	Limpid	Limpid	Limpid	Limpid	Limpid	Limpid	Limpid	Limpid	Limpid	Limpid	Limpid	Crystal	Crystal	Crystal	Limpid	Crystal	Aspect at 25° C. [1, 6]: Limpid; Aspect at 25° C. [1, 11]: Limpid; Aspect at 25° C. [1, 14]: Limpid; Aspect at 0° C. with nucleation [2, 11]: Limpid; Aspect at 0° C. with nucleation [2, 13]: Limpid; Aspect at 0° C. [3, 6]: Crystal; Aspect at 0° C. [3, 11]: Limpid; Aspect at 0° C. [3, 13]: Limpid; Aspect at 0° C. [3, 14]: Crystal; Aspect at 0° C. [3, 16]: Limpid
CCOC(=O)C(=O)N(C)C [Compound 2, ethyl 2-(dimethylamino)-2-oxoacetate]	Limpid	Limpid	Limpid	Limpid	Limpid	Limpid	Limpid	Limpid	Limpid	Limpid	Limpid	Limpid	Limpid	Limpid	Limpid	Limpid	Limpid	Crystal	Limpid	Limpid	Aspect at 25° C. [1, 6]: Limpid; Aspect at 25° C. [1, 17]: Limpid; Aspect at 25° C. [1, 11]: Limpid; Aspect at 25° C. [1, 14]: Limpid; Aspect at 0° C. with nucleation [2, 17]: Limpid; Aspect at 0° C. with nucleation [2, 8]: Crystal; Aspect at 0° C. with nucleation [2, 9]: Limpid; Aspect at 0° C. with nucleation [2, 11]: Limpid; Aspect at 0° C. with nucleation [2, 15]: Limpid; Aspect at 0° C. [3, 6]: Crystal; Aspect at 0° C. [3, 17]: Limpid; Aspect at 0° C. [3, 11]: Limpid; Aspect at 0° C. [3, 13]: Crystal; Aspect at 0° C. [3, 14]: Crystal; Aspect at 0° C. [3, 16]: Limpid
CCCCC(CC)COC(=O)C(=O)N(C)C (centres unmarked) [Compound 3, 2-ethyl-hexyl 2-(dimethylamino)-2-oxoacetate]	Limpid	Limpid	Limpid	Limpid	Limpid	Limpid	Limpid	Limpid	Limpid	Limpid	Limpid	Limpid	Limpid	Limpid	Limpid	Crystal	Limpid	Crystal	Limpid	Limpid	Solubility in water (wt %) [4]: <0.1 wt %; Aspect at 25° C. [1, 17]: Limpid; Aspect at 0° C. with nucleation [2, 17]: Limpid; Aspect at 0° C. with nucleation [2, 9]: Crystal; Aspect at 0° C. with nucleation [2, 15]: Limpid; Aspect at 0° C. [3, 17]: Limpid; Aspect at 0° C. [3, 13]: Crystal; Aspect at 0° C. [3, 16]: Limpid
CCCCCCCCCCOC(=O)C(=O)N(C)C [Compound 4, n-decyl 2-(dimethylamino)-2-oxoacetate]	Limpid	Limpid		Limpid		Limpid		Limpid		Limpid	Limpid	Limpid		Limpid	Limpid		Limpid		Limpid	Crystal	Solubility in water (wt %) [4]: <0.025 wt %; Aspect at 25° C. [1, 17]: Limpid; Aspect at 0° C. with nucleation [2, 9]: Limpid; Aspect at 0° C. [3, 17]: Crystal
